SMILES strings stand for the structures.

The assay deals with Mycobacterium tuberculosis H37Rv growth inhibition, no glycerol. Briefly: Mycobacterium tuberculosis H37Rv growth inhibition, no glycerol, confirmatory dose response (AID 449764).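 As to all read-outs here: growth read after 7 days of incubation.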 Particulars: for IC90: measured here: IC90 growth inhibition.

Consider `COc1ccc(-c2c(C#Cc3ccsc3)c3ccccc3n2C)cc1`, for which the IC50 is 33.8 µM and the IC90 stood at 49.6 µM.
`COc1ccc(C[C@H](N)C(=O)N[C@H]2[C@@H](O)[C@H](n3cnc4c(N(C)C)ncnc43)O[C@@H]2CO)cc1`: the IC50 was 3.95 µM and the 90% effect concentration (IC90) was 5.82 µM.
For the compound `CCOc1cccc(C=Nc2cc(C)cc(C)c2O)c1O`, the 50% inhibitory concentration (IC50) is 31.2 µM and the IC90 was 41.4 µM.
In the case of `COc1ccc(-c2cc(C3CCN(C(=O)OC(C)(C)C)CC3)[nH]n2)cc1`, the half-inhibitory concentration (IC50) is 38.7 µM and the concentration for an effect of 90% (IC90) stood at 53.7 µM.
The corresponding values for `N#Cc1c([N+](=O)[O-])cc([N+](=O)[O-])cc1S(=O)(=O)Cc1ccccc1` are 22.6 µM and 25.9 µM.
The corresponding values for `COc1cccc2sc(Nc3nnc(-c4cccs4)o3)nc12` are 33.9 µM and 42.7 µM.
In the case of `Cc1ccc(/C=C(\NC(=O)c2ccc(C)cc2)c2nc(=S)[nH][nH]2)cc1`, the IC50 was 45.6 µM and the IC90 was found to be 49.5 µM.
The corresponding values for `Cc1ccc2nc(-c3cccc(Br)c3)cc(C(=O)NC3=NCCS3)c2c1` are 27.8 µM and 43.2 µM.
On to `CSc1ncc(C(=O)Nc2ccc(Br)cn2)c(C)n1`, for which the half-inhibitory concentration (IC50) is 1.54 µM and the IC90 turned out to be 2.93 µM.
The corresponding values for `CC1CCCC/C1=N\NC(=S)NCCc1ccccc1` (stereo not drawn) are 42.5 µM and 47.9 µM.
Regarding `O=C(C/C=N\OCc1ccc([N+](=O)[O-])cc1)Nc1ccc(F)cc1F`, the IC50 was 82.9 µM and the IC90 is above 100 µM.
With `CCOC(=O)C1CCCc2c1[nH]c1c(C(N)=O)cccc21` (stereo not drawn), the IC50 was 8.59 µM and the 90% effect concentration (IC90) turned out to be 17.3 µM.
As for `CN1C(=O)/C(=C/c2cccc(Cl)c2)Sc2ccc(C(=O)N3CCCC3)cc21`, the IC50 was 20.6 µM and the 90% effect concentration (IC90) stood at 49.9 µM.
In the same order, the values of `CCCCCCCCNC(=O)CCNC(=O)c1ccc(C(C)(C)C)cc1` are 34.3 µM and 41.9 µM.
In the same order, the values of `CCC(=O)c1ccc(OCC(=O)OCC(=O)c2cc(C)n(C3CC3)c2C)cc1` are 19.2 µM and 40.7 µM.
With `Cn1c(NCC(O)c2ccccc2)nc2c1c(=O)n(Cc1ccc(Cl)c(Cl)c1)c(=O)n2C` (stereo not drawn), the IC50 was 77.8 µM and the concentration for an effect of 90% (IC90) was above 100 µM.
On to `CCOc1cccc(/C=C/c2ccc3cccc(O)c3n2)c1O`, for which the IC50 is 4.28 µM and the concentration for an effect of 90% (IC90) was above 100 µM.
The corresponding values for `COc1ccc(C(=O)/C=C/c2cc(OC)c(O)c(OC)c2)c(F)c1` are 60.7 µM and above 100 µM.
The corresponding values for `Cc1ccc(-c2csc3nc4c5ccccc5c(NCCCN5CCOCC5)nn4c(=O)c23)cc1` are 29 µM and 39.8 µM.
The corresponding values for `C=C1CCC[C@]2(C)C[C@H]3OC(=O)C(CNC(C)CCCC(C)C)[C@H]3CC12` (stereo partly drawn) are 23.4 µM and 26.2 µM.
On to `COc1ccc(-n2nnnc2S(=O)(=O)CC(=O)N2CCCCC2)cc1`, for which the IC50 is 12.5 µM and the concentration for an effect of 90% (IC90) came to 20.9 µM.
The corresponding values for `CN(C(=O)COC(=O)c1sc2ccccc2c1Cl)C1CCCCC1` are 9.63 µM and 14.2 µM.
With `O=C(/C=C/c1cn(-c2ccccc2)nc1-c1cccnc1)c1ccco1`, the half-inhibitory concentration (IC50) was 39.5 µM and the concentration for an effect of 90% (IC90) came out at 54.8 µM.
For the compound `COC(=O)c1ccc2c(=O)[nH]c(CSc3nc(C)cs3)nc2c1`, the IC50 is 71.2 µM and the IC90 is above 100 µM.
As for `Cc1ccc(CN2C3CCCC2CC(NC(=S)NCc2ccccc2)C3)cc1` (stereo not drawn), the IC50 was 41.1 µM and the IC90 worked out at 75.6 µM.
Regarding `C/C(=C1/C(=O)N(c2ccc([N+](=O)[O-])cc2)N=C1c1ccccc1)N(C)C`, the IC50 is 28.2 µM and the IC90 amounted to 37 µM.
In turn, `CC(C)(C)OC(=O)NNC(=S)NC1CCCCC1` showed a concentration for an effect of 90% (IC90) above 100 µM.
Consider `CCC(C)(C)c1ccc(OCCCC[n+]2ccc(C)cc2)c(C(C)(C)CC)c1`, for which the half-inhibitory concentration (IC50) was 12 µM and the concentration for an effect of 90% (IC90) was 13.8 µM.
On to `O=C(CCC(=O)NC1CCCCCCC1)Nc1nnc(C(F)(F)F)s1`, for which the half-inhibitory concentration (IC50) was 12.1 µM and the IC90 is 13.8 µM.
Take `CSc1nsc(SCC(=O)Nc2ccc(F)cc2F)n1`: the half-inhibitory concentration (IC50) is 88.7 µM and the IC90 came to 98.9 µM.
In the same order, the values of `CCOC(=O)C1=NOC(CNc2ncc(C(F)(F)F)cc2Cl)C1` (stereo not drawn) are 11.3 µM and 14.4 µM.
In the same order, the values of `CCOc1cc(/C=C2\COc3ccccc3C2=O)cc(Br)c1OCC(=O)N(C)C` are 6.73 µM and 11.5 µM.
In the same order, the values of `O=C1Nc2cc(C(=O)NCCCN3CCOCC3)ccc2S/C1=C/c1cccc(Cl)c1` are 32.9 µM and 44.9 µM.
With `Cc1cccc(CNc2ncnc3ccc(-c4ccc5c(c4)OCCO5)cc23)c1`, the half-inhibitory concentration (IC50) was 10.1 µM and the IC90 is 12.7 µM.
With `C=CCOc1c(Br)cc(CNc2nccs2)cc1OC`, the IC50 is 31.4 µM and the concentration for an effect of 90% (IC90) was 48.2 µM.
Regarding `CCCCn1cnc2c(c(-c3ccccc3)c(-c3ccccc3)n2Cc2ccco2)c1=N`, the IC50 is 94.8 µM and the IC90 was above 100 µM.
In the same order, the values of `CN1CCN(C2=Cc3ccc(Cl)cc3Sc3ccc(F)cc32)CC1` are 25.9 µM and 35.5 µM.
The corresponding values for `S=C(NN=C1CCN(Cc2ccccc2)CC1)NC1CCCCC1` are 43.6 µM and 47 µM.
With `N#CC(C(=O)Nc1ccccc1)=C1Nc2ccccc2N1`, the half-maximal inhibitory concentration (IC50) is 39.1 µM and the IC90 was above 100 µM.
In the same order, the values of `c1cc2c3c(cccc3c1)NC1(CCC3(CC1)Nc1cccc4cccc(c14)N3)N2` are 78.1 µM and above 100 µM.
The corresponding values for `Cc1ccccc1N1CCN(c2ncnc3c2cnn3Cc2ccc(Cl)cc2)CC1` are 56.4 µM and above 100 µM.
Take `O=c1c2cc(Br)cc(Br)c2oc2nc3n(c(=O)c12)CCCS3`: the IC50 was 10.4 µM and the IC90 was determined as 23.3 µM.
In the same order, the values of `Cc1ccc(C(=O)OCc2nnc(-c3ccccc3)o2)s1` are 20.4 µM and 32.2 µM.
The corresponding values for `NC(N)=N/N=C/c1ccc(N(c2ccccc2)c2ccccc2)cc1` are 9.86 µM and 12.8 µM.
For `O=C(/C=C/c1cc(Br)ccc1O)c1ccco1`, the IC50 is 15.7 µM and the IC90 came out at 20.4 µM.
Turning to `CN(C)c1ccc(N=Nc2ccccc2C(=O)OCC(=O)NCC2CCCCC2)cc1`, the IC50 was 22.1 µM and the IC90 worked out at 24.9 µM.
In the case of `CC(C)(C)C1CCc2sc(-c3nnc(CCl)o3)cc2C1` (stereo not drawn), the IC50 is 5.74 µM and the concentration for an effect of 90% (IC90) worked out at 19.5 µM.
Take `Cc1cccc(/C=c2\s/c(=C\C(=O)C(C)(C)C)[nH]c2=O)c1`: the IC50 was 12.4 µM and the 90% effect concentration (IC90) was 31.7 µM.
The corresponding values for `CCn1c(C)c(C)c2cc(C(=O)Nc3cccc(Cl)c3)ccc21` are 36.2 µM and above 100 µM.
In the same order, the values of `COC(=O)CN1C(c2ccc(Cl)cc2)=Nc2ccc(Cl)cc2C1c1ccccc1` (stereo not drawn) are 23 µM and 24.8 µM.
In the same order, the values of `Cc1noc(C)c1COc1ccc(C(=O)OCC(=O)NC23CC4CC(CC(C4)C2)C3)cc1` are 23.9 µM and 35.5 µM.
Turning to `O=[N+]([O-])c1cc(-c2nc(-c3ccncc3)no2)cc([N+](=O)[O-])c1`, the concentration for half-maximal inhibition (IC50) is 10.4 µM and the concentration for an effect of 90% (IC90) was 20.5 µM.
On to `C/C(=N\NC(=O)c1cc2ccccc2cc1O)c1ccc(C)o1`, for which the IC50 is 10.5 µM and the concentration for an effect of 90% (IC90) came to 18.7 µM.
On to `COc1ccccc1NC(=O)c1ccc(NC(=O)CSc2nnnn2C)cc1`, for which the IC50 is 11.7 µM and the IC90 was determined as 21.6 µM.
In the same order, the values of `O=C(CCl)c1ccc2c(c1)CCN2C(=O)C1CCCCC1` are 41.5 µM and above 100 µM.
Take `O=c1/c(=C\c2ccc(O)cc2)sc2n1C(c1ccccc1)C(c1ccccc1)=NN=2` (stereo not drawn): the IC50 was 41.1 µM and the IC90 was found to be 66 µM.
In the case of `COc1ccc(-c2ccc(OC)c([C@H]3[C@@H]4C=CCC[C@@]4(C)C(=O)N3Cc3ccccc3)c2)cc1OC`, the IC50 was 89.5 µM and the IC90 is above 100 µM.
For `Oc1ccccc1N=Cc1ccc[nH]1`, the IC50 is 4.6 µM and the IC90 amounted to 6.04 µM.
In the same order, the values of `Cc1ccc(-c2ccnc(=S)[nH]2)cc1` are 55.9 µM and above 100 µM.
Consider `CCOC(=O)c1[nH]c(CN2CCN(c3ccc(OC)cc3)CC2)c(C(=O)OCC)c1C`, for which the half-maximal inhibitory concentration (IC50) was 34.1 µM and the concentration for an effect of 90% (IC90) came out at 48.6 µM.
For `COc1ccc2[nH]c3c(C)c4ccncc4c(C)c3c2c1`, the half-inhibitory concentration (IC50) was 1.33 µM and the IC90 stood at 1.68 µM.
The corresponding values for `c1ccc(CN2CCC3(CCCc4ccccc43)CC2)cc1` are 12.2 µM and 15.8 µM.
The corresponding values for `Nc1nc(CN2CCN(c3ccccc3F)CC2)nc(N2CCCc3ccccc32)n1` are 12 µM and 24.2 µM.
As to `CC(=O)c1cccc2c(O)c(C3=Nc4ccccc4C3=O)[nH]c12`, the IC50 was 11.5 µM and the IC90 stood at 12.9 µM.
Consider `Cc1ccc(S(=O)(=O)n2ccc3c(OCCOCCNCc4ccc(F)cc4)cccc32)cc1`, for which the IC50 is 23 µM and the 90% effect concentration (IC90) was 26 µM.
For the compound `NC1=NC[C@H](Cc2ccc(O)cc2)N1CCc1cccc2ccccc12`, the IC50 is 40.9 µM and the IC90 came to 45.6 µM.
The corresponding values for `O=c1c2c(nc3nc(NCc4ccc(Cl)cc4)[nH]n13)CCC2` are 9.12 µM and 14.3 µM.
Regarding `Cc1ccc(-c2c[n+](CC(=O)N3c4ccccc4Sc4ccccc43)c3n2CCC3)cc1`, the IC50 was 22.9 µM and the 90% effect concentration (IC90) amounted to 26.1 µM.
In the same order, the values of `O=C(COC(=O)C1=COCCO1)NCc1ccc(Cl)cc1` are 28.1 µM and above 100 µM.
Turning to `CCOC(=O)c1ccc(NC(=O)C(C)Sc2nc(O)c(-c3ccccc3)c(=O)[nH]2)cc1` (stereo not drawn), the IC50 was 18.4 µM and the concentration for an effect of 90% (IC90) was determined as 35 µM.
As for `N[C@@H](CCl)C(=O)O`, the IC50 was 35.4 µM and the IC90 is 55.2 µM.
Regarding `COc1ccc2c(c1)[C@@H]1[C@H](CO2)[C@H](c2ccccc2)[C@]2(C)C(=O)Nc3ccc(C)cc3C(=O)N12`, the half-inhibitory concentration (IC50) was 71.1 µM and the 90% effect concentration (IC90) is above 100 µM.

For orientation: IC50 means the concentration needed to halve the response being measured. As a reminder, the IC90 is the concentration needed for an effect of 90%.

For the origin of these results see PubChem BioAssay AID449764 (Southern Research Specialized Biocontainment Screening …, 2010).
